Source: US20200316087A1, “NOVEL COMBINATION THERAPY FOR ANXIETY DISORDERS, EPILEPSY, AND PAIN” (priority 2017, published 2020)

Tests used:
[1] = test system: motor performance on an inverted screen; assay: Rat inverted screen test (motor impairment); conditions: rats
Description: The motor effects of Diazepam and KRM-II-81 were studied on the inverted screen. The inverted screen test is used to measure whether or not a test compound induces muscle relaxation. When a test subject is placed on a wire screen which is then inverted, the reaction is to climb to the opposite side so they are no longer hanging upside down.
Male, Sprague Dawley rats (Harlan Sprague Dawley, Indianapolis, Ind.) were used and weighed 90-110 g when evaluated in experiments. […] Rats were placed onto the top of a wire screen, which was then inverted so that the rats were hanging upside down.
Male Sprague-Dawley rats (n=5) were dosed i.p. (vehicle=1% carboxymethyl cellulose) with diazepam (3, 10, or 30 mg/kg), KRM-II-81 (10, 30, or 60 mg/kg) or HZ-166 (30 mg/kg) 30 minutes prior to testing. Rats were placed onto the top of a wire screen, which was then inverted so that the rats were hanging upside down. […] Results were analyzed using ANOVA (Dunnett's test: *P<0.05).
(§1) For the in vivo assays, minimal effective doses (MED) were calculated in mg/kg. MED was defined as the lowest dose administered that produced statistically significant protection compared to vehicle control in the anticonvulsant assays. The MED, or minimal toxic dose (MTD) for motor impairment, was the minimal dose required to produce statistically-significant impairment in motor performance. Doses tested are shown in the figures and tables and are generally dosed in ½ log increments. The protective index (PT) was calculated at the MTD/MED.

[2] = test system: seizures in amygdala kindled rats; assay: Basolateral amygdala kindling; type: in vivo
Experimental: Seizure kindling models evaluate effects of drugs on the sensitization of the nervous system to seizure induction. In this test, drugs were evaluated for their ability to impact seizure parameters in rats that were fully kindled by daily electrical stimulation of their amygdala. Valproic acid was used as a positive control. Experiments were conducted using the general procedures of Zwart et al. (J. Pharmacol. Exp. Ther., 2014, 351:124-133). A bipolar electrode for electrical stimulation and EEG recording was stereotaxically implanted into one hemisphere of the basolateral amygdala (AP −2.2, ML −4.8, DV −8.5 mm, relative to bregma) of male Wistar rats. After post-operative recovery, electrical kindling begins, where a subthreshold constant current (400 μA, 1 ms, monophasic square-wave pulses, 60 Hz for 1 sec) is given once a day Monday-Friday for about 4-6 weeks until a rat is fully kindled. A fully kindled rat has experienced 10 consecutive stage 5 seizures or 10 of its last 12 were stage 5 according to the Racine Scale.
Twelve fully kindled rats were assigned to this study, and eight rats were selected and randomized to initial compound treatment groups from baseline after discharge threshold (ADT), seizure severity score, and after discharge duration (ADD). […] On test day, rats were dosed 30 min prior to beginning stimulation. After the pre-treatment, rats were stimulated using an ascending staircase sequence beginning at 10 μA and increasing in log unit steps of 10, 16, 25, 40, 65, 100, 160, 250, and 400 μA. Animals were stimulated until they were assigned a Seizure Severity Score for a visually observably seizure or they reached the 400 μA threshold limit. ADD was determined following testing. ADT was the current that induced a seizure; measurements were scale-adjusted to capture the stimulation scale change required to observe a seizure from the previous baseline to the ADT scored on test day. […] The average scale adjusted ADT was approximately 0.63 μA in vehicle treated rats.
Racine score of behavioral response to stimulation: 0=no behavioral response; 1=immobility, staring and/or facial clonus; 2=head nodding, jaw clonus, and/or tongue protrusion; 3=unilateral forelimb clonus; 4=bilateral forelimb clonus and/or rearing; 5=bilateral forelimb clonus with rearing and loss of balance.
After-Discharge Duration (ADD) is the duration of the first after-discharge.
ADT, ADD, and severity scores were analyzed by ANOVA. Seizure severity data was also analyzed by the nonparametric Skillings-Mack test, a generalization of the Friedman test for one-way repeated measures designs. Posthoc tests when reported were either by Dunnett's method (seizure severity) or using Wilcoxon sign rank tests (ADT and ADD). Valproic acid, used as a positive control was not used in ANOVA calculations.

PTZ-induced clonus = assay: Pentylenetetrazole (PTZ, 35 mg/kg s.c.)-induced clonic convulsions; type: in vivo; conditions: rats; for PTZ Clonus to Criteria 1: MED producing maximal protection (0% seizures); for PTZ Clonus Potency (MED): lowest dose with statistically significant protection; for PTZ Clonus Potency (MED) / protection against PTZ-induced clonus: PTZ 35 mg/kg s.c.
Experimental: After the inverted screen test, the rats were dosed with pentylenetetrazole (PTZ)(35 mg/kg, s.c.) in a volume of 1 ml/kg and placed in an observation cage (40.6×20.3×15.2 cm) with a floor containing […] of wood chip bedding material. PTZ dose was determined to be ˜EC97 for producing clonic convulsions.

PTZ seizure threshold = assay: Pentylenetetrazole (PTZ, i.v.)-induced seizure threshold; type: in vivo, rats
Experimental: Male […] Sprague-Dawley rats (Indianapolis, Ind.) were randomly assigned to treatment groups and dosed with vehicle (vehicle=1% carboxymethyl cellulose) with diazepam (0.1, 0.3, or 1 mg/kg) or test compound (3, 10, 30, or 60 mg/kg) 30 minutes prior to testing. Rats were placed in a restrainer and a winged infusion needle was inserted into the lateral tail vein. Intravenous infusion with 10 mg/ml PTZ at a rate of 0.5 ml/min was initiated until a clonic convulsion occurred, and the time to clonic convulsion was recorded in sec or a maximum of 4 min was recorded. Following infusion, rats are euthanized. The dose of PTZ required to elicit a clonic convulsion was calculated using the infusion rate, concentration of PTZ, time to clonic convulsion, and animal weight.

[3] = test system: electroshock-induced seizures; assay: Mouse electroshock-induced seizure model; type: in vivo; conditions: mice; for Electroshock to Criteria: MED producing maximal protection (0% seizures)
Experimental: This assay detects effects of compounds that produce generalized seizures and those that dampen seizure spread. Male, CD1 mice (Taconic Farms) were studied at weights of 21-32 g. Mice=10/dose) were used with Wahlquist Model H stimulator with 0.2 sec stimulation with corneal electrodes. […] Mice were euthanized immediately following the test. Tonic extension was used as the primary endpoint.
as §1

[4] = test system: CFA-induced mechanical hyperalgesia; assay: Complete Freund's adjuvant inflammatory pain, von Frey filament test; type: in vivo, rats
Experimental: Complete Freund's adjuvant (CFA) contains Mycobacterium butyricum, inducing inflammation and an increase in paw thickness. 0.1 mL of CFA was injected in the right hind paw of Sprague Dawley male rats under isoflurane anaesthesia. Mechanical hyperalgesia may be measured 2-3 days after CFA treatment. Rats (n=6) are placed in elevated boxes with a mesh floor. Von Frey filaments (expressed in g) are applied perpendicularly to the hindpaws, starting with the lowest filament (1.4 g) then increased until hindpaw withdrawal is observed. After each measurement, rats receive the next dose of drug (every 20 min) until the maximum threshold (26 g) is observed. For the antagonist study, rats are pretreated with the benzodiazepine site antagonist (10 min) and then receive the next dose of drug (every 20 min) until the pre-CFA threshold was observed.
3PBC.HCl was dissolved in a mixture containing 10% ethanol, 50% propylene glycol, and 40% sterile water. BCCt was dissolved in propylene glycol and then heated in a water bath up to 70° C. Midazolam (Akorn, Inc.) was dissolved in 0.9% saline. Doses were expressed as the weight of the drug in milligrams per kilogram of body weight and drugs were administered intraperitoneally.
Starting 2 days after CFA treatment, mechanical hyperalgesia was measured on days 0, 4, and 8. On days 1-3 and 5-7 rats were pretreated with either 3PBC.HCl (5.6 mg/kg), β-carboline-3-carboxylate-t-butyl ester (BCCt) (3.2 mg/kg) or saline twice a day (a.m. injections (9:00-10:30) and p.m. injections (5:00-6:30)) in their home cages. Rats were treated with midazolam (5.6 mg/kg) immediately after pretreatment of 3PBC.HCl, BCCt, or saline. On days 0 and 4, rats only received p.m. injections due to the mechanical hyperalgesia test done in the a.m.
The anti-hyperalgesic effects of midazolam were quantified for each animal as percent maximal possible effect (MPE) for each drug dose by using the following formula: percent MPE=[(post-drug value for a behavioral response (g)−pre-drug value for a behavioral response)/(pre-CFA value-pre-drug value for a behavioral response)×100.

[5] = test system: immobility in forced-swim test; assay: Forced-swim assay; type: in vivo, mice; conditions: male NIH Swiss mice, i.p., 30 min prior
Experimental: Male NIH Swiss mice (Envigo, Indianapolis, Ind.) were studied. Mice were placed in clear plastic cylinders (diameter: 10 cm; height: 25 cm) filled with 6 cm of water (22-25° C.) for six min. […] The duration of immobility during the last four min of the six min test period was scored. A mouse was recorded as immobile when floating motionless or making only those movements necessary to keep its head above water.

[6] = test system: human (α2), or rat (α1, α3, α5, γ2L, β3) GABAA receptor subunits; assay: Whole-cell patch-clamp GABA current responses in transfected HEK-293T cells; type: cell-based; conditions: GABA EC3-5, drug concentration 100 nM
Experimental: Human […] (HEK-293T) were transiently transfected with full-length cDNAs encoding human (α2), or rat (α1, α3, α5, γ2L, β3) GABAA receptor subunits using calcium phosphate precipitation. Positively transfected cells were isolated by utilizing co-transfection of a plasmid encoding a surface antibody (pHook™-1, Invitrogen). 20-52 hours following transfection, cells were mixed with magnetic beads coated with antigen specific for the pHook antibody, isolated with a magnetic stand, and then plated onto coverslips and used for patch-clamp recordings 18-28 hours later.
Current responses to GABA were recorded in the whole-cell configuration, with cells voltage-clamped at −50 mV. The bath solution contained (in mM): 142 NaCl, 8.1 KCl, 6 MgCl2, 1 CaCl2), and 10 HEPES (4-(2-hydroxyethyl)-1-piperazineethanesulfonic acid) with pH=7.4 and osmolarity adjusted to 295-305 mOsm. The electrode (internal) solution consisted of (in mM); 153 KCl, 1 MgCl2, 5 K-EGTA (ethylene glycol-bis (β-aminoethyl ether N,N,N′N′-tetraacetate)), and 10 HEPES with pH=7.4 and osmolarity adjusted to 295-305 mOsm. […] Currents were recorded with an Axon 200B (Foster City, Calif.) patch clamp amplifier. […] Data were analyzed by two-way ANOVA followed by post-hoc Tukey's multiple comparison test. […]

C#Cc1ccc2c(c1)C(c1ccccn1)=NCc1c(C(=O)OCC)ncn1-2 [HZ-166, ethyl 8-ethynyl-6-(pyridin-2-yl)-4H-benzo[f]imidazo[1,5-a][1,4]diazepine-3-carboxylate, reference compound]
muscle relaxation on inverted screen (result in words) ([1]; i.p., 30 min prior, KRM-II-81 10-60 mg/kg, HZ-166 30 mg/kg): Neither HZ-166 nor KRM-II-81 induced significant muscle relaxation
dose at which signs of muscle relaxation began to appear ([1]; i.p., inverted screen): 30 mg/kg
After-Discharge Duration to Criteria ([2]; MED for producing after-discharge duration ≤30 sec): >60 mg/kg
After-Discharge Threshold to Criteria ([2]; MED for producing after-discharge threshold ≥3): >60 mg/kg
Seizure Severity to Criteria ([2]; MED for producing seizure severity score ≤2): >60 mg/kg
After-Discharge Duration Potency (MED) ([2]; amygdala kindled rats): >60 mg/kg
After-Discharge Threshold Potency (MED) ([2]; amygdala kindled rats): >60 mg/kg
Seizure Severity Poteny (MED) ([2]; amygdala kindled rats): >60 mg/kg
Seizure free scores (seizure severity=0) ([2]; amygdala kindled rats, groups of 8): 0/8
PTZ Clonus to Criteria 1 (PTZ-induced clonus): >30 mg/kg
PTZ Clonus Potency (MED) (PTZ-induced clonus): >30 mg/kg
protection against PTZ-induced clonus (PTZ-induced clonus): did not significantly separate from vehicle up to 30 mg/kg
PTZ Threshold to Criteria (PTZ seizure threshold; MED for producing ≥2× PTZ seizure threshold at baseline): >60 mg/kg
PTZ Threshold Poteny (MED) (PTZ seizure threshold; lowest dose with statistically significant effect, rats, PTZ i.v.): >60 mg/kg
effect on dose of PTZ required to induce convulsions (PTZ seizure threshold; rats, PTZ i.v. infusion, pretreatment 30 min): not active and displayed little protection up to 60 mg/kg
Electroshock to Criteria [3]: >30 mg/kg
Electroshock (minimal effective dose, MED) ([3]; lowest dose with statistically significant protection vs vehicle): 30 mg/kg
protection against electroshock-induced seizures [3]: not efficacious up to 30 mg/kg

Cc1ncc2n1-c1ccc(Cl)cc1C(c1ccccc1F)=NC2 [midazolam]
percent maximal possible effect (MPE) of midazolam ([4]; midazolam 5.6 mg/kg after 7 days of repeated midazolam with saline pretreatment): 17 % MPE
percent maximal possible effect (MPE), attenuation of mechanical hyperalgesia ([4]; midazolam 5.6 mg/kg i.p., Day 0, prior to repeated treatment, CFA rats): 100 % MPE

CCCOc1cc2c(cn1)[nH]c1ccccc12.Cl [3-PBC.HCl]
percent maximal possible effect of midazolam ([4]; midazolam 5.6 mg/kg after 7 days of repeated midazolam with 3PBC.HCl (5.6 mg/kg) pretreatment twice a day): 52 % MMPE

CC(C)(C)OC(=O)c1cc2c(cn1)[nH]c1ccccc12 [BCCt, β-carboline-3-carboxylate-t-butyl ester]
percent maximal possible effect (MPE) of midazolam ([4]; midazolam 5.6 mg/kg after 7 days of repeated midazolam with BCCt (3.2 mg/kg) pretreatment twice a day): 92 % MPE

CCOC(=O)c1ncn2c1CN(C)C(=O)c1cc(F)ccc1-2 [Flumazenil, flumazenil]
effect on antinociceptive effects of KRM-II-81 ([4]; flumazenil pre-treatment before cumulative doses of KRM-II-81, CFA rats): dose-dependently attenuated

C#Cc1ccc2c(c1)C(c1ccccn1)=NCc1c(-c3nc(CC)no3)ncn1-2 [MP-III-080, 3-ethyl-5-(8-ethynyl-6-(pyridin-2-yl)-4H-benzo[f]imidazo[1,5-a][1,4]diazepin-3-yl)-1,2,4-oxadiazole]
effect on motor performance ([1]; up to 30 mg/kg, inverted screen): without significant effect on motor performance
immobility in forced-swim assay [5]: significantly decreased immobility time
PTZ Clonus to Criteria 1 (PTZ-induced clonus): 10 mg/kg
PTZ Clonus Potency (MED) (PTZ-induced clonus): 10 mg/kg
protection against PTZ-induced clonus (PTZ-induced clonus): dose-dependently suppressed
Electroshock to Criteria [3]: 5.6 mg/kg
selectivity for α2 and α3 over α1 [6]: selective for α2 and α 3 over α1
